Results reported in patent US20100256357A1, “HETEROCYCLES USEFUL AS INHIBITORS OF CARBONIC ANHYDRASE” (Agouron Pharmaceuticals, Inc., priority 2006, published 2010).
Like-named read-outs stand apart in the source and are kept apart here.

Legend:
human CA-IX = biological target: T1, human CA-IX (Homo sapiens, UniProt Q16790); experiment: Carbonic Anhydrase-IX (CA-IX) Fluorescence Polarization Assay-IC50 Determination; type: binding; conditions: read-out: CAIX IC50
T1 construct: purchased R&D Systems Inc. 2188-CA-010
Procedure: Carbonic Anhydrase-IX (CA-IX) Fluorescence Polarization Assay-IC50 Determination
Compounds were diluted in DMSO at the concentration of 1 mM, then 50 μM and transferred to a 96-well plate for further dilutions (1:3 dilution, 11 points) in duplicate. Final compound highest concentration in CA-IX FP assay is 1 μM. Assays were conducted in a final volume of 100 μL in 50 mM Tris/HCl (pH 7.6), 100 mM Na2SO4 and 0.005% Tween-20 in a 96-well black assay. plate. […] was used as the tracer. Binding inhibition was determined by pipetting 8 μL of human CA-IX (8 nM, R&D Systems Inc. Cat#2188-CA-010) into assay plate contained 2 μL of compound and 2 μL of tracer (2 nM) in 88 μL of assay buffer. The assay plate was incubated at room temperature for 30 minutes and read in the fluorescence polarization reader (Molecular Devices, Analyst) at 524/45 nm (excitation), 595/60 nm (emission) and 561 nm (bean splitter). […] GraphPad Prism or similar in-house software with the IC50 curve fitting using the four parameter logistic equation.

human CA-XII = biological target: T2, human CA-XII (Homo sapiens, UniProt O43570); experiment: Carbonic Anhydrase-XII (CA-XII) Fluorimetric Assay-IC50 Determination; type: biochemical; conditions: for inhibition at 1 µM: read-out: % inh CAXII @ 1 uM; for IC50: read-out: CAXII IC 50
T2 construct: made in house; host or cells: Escherichia coli AD494 (DE3)
Procedure: Carbonic Anhydrase-XII (CA-XII) Fluorimetric Assay-IC50 Determination
The cells were grown in LB (Biomyx) supplemented with 800 uM ZnCl2 at 37° C. until an O.D.600 of 0.7, at which point the cells were induced with 100 uM IPTG for 20 hours at 20° C. The frozen pellet was resuspended in 50 mM MES pH 6.0, 100 mM NaCl, 800 uM ZnCl2 and EDTA-Free protease inhibitors (Roche). The cells were lysed with a microfluidizer and the lysate was spun at 40,000 rpm for 45 minutes at 4° C. The soluble fraction was then put over a 100 ml SP-Sepharose High Performance (GE Healthcare) column and eluted with a 50 mM MES pH 6.0, 750 mM NaCl gradient.
Compounds were diluted in DMSO at the concentration of 1 mM, then 50 μM and transferred to a 96-well plate for further dilutions (1:3 dilution, 11 points) in duplicate. Final compound highest concentration in CA-XII Fluorimetric assay is 1 μM. Assays were conducted in a final volume of 100 μL in 50 mM Tris/HCl (pH 7.6), 100 mM Na2SO4 and 0.005% Tween-20 in a 96-well black assay plate. Fluorescein diacetate was used as the substrate. Enzyme inhibition was determined by pipetting 8 μL of human CA-XII (50 nM) into assay plate contained 2 μL of compound and 2 μL of substrate (10 μM) in 88 μL of assay buffer.

human CA-IV = biological target: T3, human CA-IV (Homo sapiens, UniProt P22748); experiment: Carbonic Anhydrase-IV (CA-IV) Fluorescence Polarization Assay-IC50 Determination; type: binding; conditions: for inhibition at 0.2 µM: read-out: CA-IV: % Inh @ Min dose
T3 construct: made in house; host or cells: Escherichia coli BL21(DE3)
Outline: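 IC50 values come from a fluorescence polarization read-out. The CA-IV protein was zinc-supplemented during expression and purified by cation exchange then gel filtration, ending in 25 mM Tris-HCl pH 7.0 with 100 mM NaCl at 7.0 mg/mL.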

human CA-II [1] = biological target: T4, human CA-II (Homo sapiens, UniProt P00918); experiment: Carbonic Anhydrase-II (CA-II) Fluorimetric Assay-IC50 Determination; type: biochemical; conditions: for inhibition at 0.1 µM: CA II Min dose 100 nM; for inhibition at 0.1 µM / inhibition at 0.0025 µM: read-out: CAII % Inh @ Min dose; for inhibition at 0.0025 µM: Min dose 2.5 nM
T4 construct: purchased Sigma-Aldrich C6165
Outline: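 Enzyme activity is read fluorimetrically at 25° C (ex 488 nm / em 538 nm) as the rate at which human CA-II hydrolyses fluorescein diacetate. The buffer is Tris/HCl (50 mM, pH 7.6) with 100 mM Na2SO4 and 0.005% Tween-20. Inhibitors run in duplicate over 11 threefold dilutions, […]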

human CA-II [2] = biological target: T4, human CA-II; experiment: Carbonic Anhydrase-II (CA-II) Fluorescence Polarization Tight Binding Assay-Kd Determination; conditions: read-out: CA-II Kd
Procedure: Assays were conducted in a final volume of 100 μL in 50 mM Tris/HCl (pH 7.6), 100 mM Na2SO4 and 0.005% Tween-20 in a 96-well black assay plate. […] The assay plate was
The Kd binding was calculated using GraphPad Prism and Morrison tight binding ligand equation.

T2 sequence (O43570 30-289 limits assumed): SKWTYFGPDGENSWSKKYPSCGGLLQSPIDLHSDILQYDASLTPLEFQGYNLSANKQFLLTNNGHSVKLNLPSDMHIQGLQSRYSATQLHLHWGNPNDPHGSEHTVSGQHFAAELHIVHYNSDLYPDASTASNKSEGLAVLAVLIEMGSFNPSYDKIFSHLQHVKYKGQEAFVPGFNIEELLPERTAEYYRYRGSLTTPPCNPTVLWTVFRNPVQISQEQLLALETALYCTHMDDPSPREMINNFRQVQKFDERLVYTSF
T3 sequence (P22748 19-284 limits assumed): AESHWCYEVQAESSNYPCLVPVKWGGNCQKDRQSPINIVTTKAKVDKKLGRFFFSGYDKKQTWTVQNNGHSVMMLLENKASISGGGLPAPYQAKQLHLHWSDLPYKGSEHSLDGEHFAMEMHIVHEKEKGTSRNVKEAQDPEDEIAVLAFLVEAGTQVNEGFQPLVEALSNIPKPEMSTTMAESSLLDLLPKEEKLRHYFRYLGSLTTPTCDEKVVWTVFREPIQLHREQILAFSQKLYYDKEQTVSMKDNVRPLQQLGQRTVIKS

CCCCN(C)C(=O)c1nc(Cc2ccccc2)n(-c2ccc(S(N)(=O)=O)cc2F)n1 was tested, and the IC50 (human CA-IX) was 2.79 nM.
CN(CCc1ccccc1)Cc1cn(Cc2ccccc2F)c(-c2ccc(S(N)(=O)=O)cc2)n1 [CCC-1a, 4-(1-(2-fluorobenzyl)-4-{[methyl(2-phenylethyl)amino]methyl}-1H-imidazol-2-yl)benzenesulfonamide] was tested, and the IC50 (human CA-IX) was 39.3 nM.
For CCOC(=O)c1nn(-c2ccc(S(N)(=O)=O)cc2)c2c1CNCC2 [EE-1g, ethyl 1-[4-(aminosulfonyl)phenyl]-4,5,6,7-tetrahydro-1H-pyrazolo[4,3-c]pyridine-3-carboxylate], the inhibition at 1 µM (human CA-XII) was 31% and the IC50 (human CA-XII) was > 1000 nM.
CN(CCc1ccccc1)C(=O)c1nc(Cc2ccccc2)n(-c2ccc(S(N)(=O)=O)cc2F)n1 [Example A-1d, 1-[4-(aminosulfonyl)-2-fluorophenyl]-5-benzyl-N-methyl-N-(2-phenylethyl)-1H-1,2,4-triazole-3-carboxamide] was tested, and the IC50 (human CA-IX) was 2.94 nM.
Compound C[C@@H]1CN(Cc2nc(Cc3ccccc3)n(-c3ccc(S(N)(=O)=O)cc3F)n2)C[C@H](C)O1 [Example F-1, 4-(5-Benzyl-3-{[2,6-cis-dimethylmorpholin-4-yl]methyl}-1H-1,2,4-triazol-1-yl)-3-fluorobenzenesulfonamide] has an IC50 (human CA-IX) of 26.1 nM.
With CCCN(C)Cc1nc(Cc2cccc(C)c2)n(-c2ccc(S(N)(=O)=O)cc2F)n1 [Example F-1aj, 3-fluoro-4-[5-(3-methylbenzyl)-3-{[methyl(propyl)amino]methyl}-1H-1,2,4-triazol-1-yl]benzenesulfonamide] the IC50 (human CA-IX) was 4.32 nM.
Cc1cccc(Cc2nc(CN(C)C3CCCC3)nn2-c2ccc(S(N)(=O)=O)cc2F)c1 [Example F-1ak] gave an IC50 (human CA-IX) of 3.83 nM.
Compound CN(Cc1nc(Cc2ccccc2)n(-c2ccc(S(N)(=O)=O)cc2F)n1)C1CCCCC1 [Example F-1aq, 4-(5-benzyl-3-{[cyclohexyl(methyl)amino]methyl}-1H-1,2,4-triazol-1-yl)-3-fluorobenzenesulfonamide] has an IC50 (human CA-IX) of 9.41 nM.
With NS(=O)(=O)c1ccc(-n2nc(CN3CC=CCC3)nc2Cc2cccc(Br)c2)cc1 [Example F-1z, 4-[5-(3-bromobenzyl)-3-(3,6-dihydropyridin-1(2H)-ylmethyl)-1H-1,2,4-triazol-1-yl]benzenesulfonamide] the IC50 (human CA-IX) was 7.99 nM.
In the case of CCCCN(C)Cc1nc(Cc2ccccc2)n(-c2ccc(S(N)(=O)=O)cc2F)n1 [Example G-1b, 4-(5-benzyl-3-{[butyl(methyl)amino]methyl}-1H-1,2,4-triazol-1-yl)-3-fluorobenzenesulfonamide], the IC50 (human CA-IX) is reported as 9.01 nM.
For Cc1nc(C(=O)O)nn1-c1ncc(S(N)(=O)=O)cn1 [Example I-5b, 1-[5-(aminosulfonyl)pyrimidin-2-yl]-5-methyl-1H-1,2,4-triazole-3-carboxylic acid], the IC50 (human CA-IV; read-out: IC50_CAIV) was > 1000 nM, the IC50 (human CA-II [1]; read-out: IC50—CAII) was 57.9 nM and the inhibition at 1 µM (human CA-XII) was 46%. The IC50 (human CA-XII) was > 1000 nM.
With CN(CC1CC1)C(=O)c1nc(Cc2ccccc2)n(-c2ccc(S(N)(=O)=O)cc2)n1 [Example R-20, 1-[4-(aminosulfonyl)phenyl]-5-benzyl-N-(cyclopropylmethyl)-N-methyl-1H-124-triazole-3-carboxamide] the inhibition at 0.2 µM (human CA-IV; CA-IV Min dose 200 nM) was 65.2%, the IC50 (human CA-IV; read-out: CA-IV IC50) was 355 nM and the inhibition at 0.1 µM (human CA-II [1]) was 100%. The Kd (human CA-II [2]) was 0.805 nM.
In the case of COc1cccc(CNC(=O)c2nc(Cc3ccccc3)n(-c3ccc(S(N)(=O)=O)cc3)n2)c1 [Example R-22, 1-[4-(aminosulfonyl)phenyl]-5-benzyl-N-(3-methoxybenzyl)-1H-124-triazole-3-carboxamide], the inhibition at 0.2 µM (human CA-IV; CA-IV Min dose 200 nM) is reported as 53.6%, the IC50 (human CA-IV; read-out: CA-IV IC50) is reported as 361 nM and the inhibition at 0.1 µM (human CA-II [1]) is reported as 100%. For the same compound, the Kd (human CA-II [2]) was 0.091 nM.
With CN(C)[C@H]1CCN(C(=O)c2nc(Cc3ccccc3)n(-c3ccc(S(N)(=O)=O)cc3)n2)C1 [Example R-23, 4-(5-benzyl-3-{[(3S)-3-(dimethylamino)pyrrolidin-1-yl]carbonyl}-1H-124-triazol-1-yl)benzenesulfonamide] the inhibition at 0.2 µM (human CA-IV; CA-IV Min dose 200 nM) was 40.3%, the IC50 (human CA-IV; read-out: CA-IV IC50) was 376 nM and the inhibition at 0.1 µM (human CA-II [1]) was 99%. It also gave a Kd (human CA-II [2]) of 0.294 nM.
With CCOC(=O)c1cc(C)n(-c2ccc(S(N)(=O)=O)cc2)n1 [GG-1, Ethyl 1-[4-(Aminosulfonyl)phenyl]-5-methyl-1H-pyrazole-3-carboxylate] the IC50 (human CA-IV; read-out: IC50_CAIV) was ≥ 5000 nM, the inhibition at 1 µM (human CA-XII) was 51% and the IC50 (human CA-XII) was 896 nM.
For NS(=O)(=O)c1ccc(-n2nc(CN3CCOCC3)c3c2CCCC3)cc1 [II-1b, 4-[3-(morpholin-4-ylmethyl)-4,5,6,7-tetrahydro-1H-indazol-1-yl]benzenesulfonamide], the IC50 (human CA-IV; read-out: IC50_CAIV) was ≥ 5000 nM, the inhibition at 1 µM (human CA-XII) was 89% and the IC50 (human CA-XII) was 119 nM.
Cc1ccc(C)c(Cn2cc(C(F)(F)F)nc2-c2ccc(S(N)(=O)=O)cc2)c1 [JJJ-1, 4-[1-(25-dimethylbenzyl)-4-(trifluoromethyl)-1H-imidazol-2-yl]benzenesulfonamide] was tested, and the inhibition at 0.2 µM (human CA-IV; Min dose 200 nM) was 56%, the IC50 (human CA-IV; read-out: CA-IV IC50) was 130 nM and the inhibition at 0.0025 µM (human CA-II [1]) was 46%. It also gave a Kd (human CA-II [2]) of 0.608 nM.
For Cc1cc(Cn2cc(C(F)(F)F)nc2-c2ccc(S(N)(=O)=O)cc2)ccc1F [JJJ-2, 4-[1-(4-fluoro-3-methylbenzyl)-4-(trifluoromethyl)-1H-imidazol-2-yl]benzenesulfonamide], the inhibition at 0.2 µM (human CA-IV; Min dose 200 nM) was 45%, the IC50 (human CA-IV; read-out: CA-IV IC50) was 309 nM and the inhibition at 0.0025 µM (human CA-II [1]) was 37%. It also gave a Kd (human CA-II [2]) of 0.552 nM.
Cc1ccccc1Cn1cc(C(F)(F)F)nc1-c1ccc(S(N)(=O)=O)cc1 [JJJ-3, 4-[1-(2-methylbenzyl)-4-(trifluoromethyl)-1H-imidazol-2-yl]benzenesulfonamide] gave an inhibition at 0.2 µM (human CA-IV; Min dose 200 nM) of 36%, an IC50 (human CA-IV; read-out: CA-IV IC50) of 346 nM and an inhibition at 0.0025 µM (human CA-II [1]) of 47%. For the same compound, the Kd (human CA-II [2]) was 0.369 nM.
For NS(=O)(=O)c1ccc(-c2nc(C(F)(F)F)cn2Cc2cccc(OC(F)F)c2)cc1 [JJJ-4, 4-{1-[3-(difluoromethoxy)benzyl]-4-(trifluoromethyl)-1H-imidazol-2-yl]benzenesulfonamide], the inhibition at 0.2 µM (human CA-IV; Min dose 200 nM) was 29%, the IC50 (human CA-IV; read-out: CA-IV IC50) was 440 nM and the inhibition at 0.0025 µM (human CA-II [1]) was 39%. The Kd (human CA-II [2]) was 1.39 nM.
Cc1cc(C(=O)N(C)C)nn1-c1ccc(S(N)(=O)=O)cn1 [MM-1b, 1-[5-(aminosulfonyl)pyridin-2-yl]-N,N,5-trimethyl-1H-pyrazole-3-carboxamide] showed an IC50 (human CA-IV; read-out: IC50_CAIV) of 2390 nM, an inhibition at 1 µM (human CA-XII) of 96% and an IC50 (human CA-XII) of 66.5 nM.
In the case of Cc1cc(C(=O)N2CCN(C)CC2)nn1-c1ccc(S(N)(=O)=O)cn1 [MM-1c, 6-{5-methyl-3-[(4-methylpiperazin-1-yl)carbonyl]-1H-pyrazol-1-yl}pyridine-3-sulfonamide], the IC50 (human CA-IV; read-out: IC50_CAIV) is reported as 2950 nM, the inhibition at 1 µM (human CA-XII) is reported as 86% and the IC50 (human CA-XII) is reported as 166 nM.
For CCOC(=O)c1nc(Cc2ccccc2)n(-c2ccc(S(N)(=O)=O)cc2)n1 [a-4, Ethyl 1-[4-(Aminosulfonyl)phenyl]-5-benzyl-1H-1,2,4-triazole-3-carboxylate], the inhibition at 1 µM (human CA-XII) was 95% and the IC50 (human CA-XII) was 73.8 nM.
NS(=O)(=O)c1ccc(-n2nc(C(=O)O)nc2Cc2ccccc2)cc1 [a-5, 1-[4-(Aminosulfonyl)phenyl]-5-benzyl-1H-1,2,4-triazole-3-carboxylic acid] gave an inhibition at 1 µM (human CA-XII) of 99% and an IC50 (human CA-XII) of 25.8 nM.
